Data published in patent US8188326B2, “Process for producing adamantane” (Mitsubishi Gas Chemical Company, Inc., priority 2008, dated 2012).

Type: physicochemical
Description: FIG. 1 is a graph showing the measurement results of the solubility of adamantane (hereinafter, occasionally referred to simply as “ADM”) in TCD (mol %=ADM mol/(exo-TCD+endo-TCD+ADM)mol×100).
Specifically, at 80° C., with respect to the purity of 80% of mixed TCD containing exo-TCD of 99% and endo-TCD of 1% (hereinafter, referred to simply as “exo-TCD (99)”), the total ADM solubility is 20 mol %. […] It is preferable to control the yield (generation amount) of adamantane to be equal to or less than such a level of ADM solubility.

C1C2CC3CC1CC(C2)C3 [adamantane, tricyclo[3.3.1.1^3,7]decane]
total ADM solubility of adamantane with respect to TCD: 12.3 mol %
